This is an account of results in patent US20150258118A1, “CO-MICRONISATION PRODUCT COMPRISING A SELECTIVE PROGESTERONE-RECEPTOR MODULATOR” (LABORATOIRE HRA-PHARMA, priority 2012, published 2015).

Values after ≈ are worked out from the molar mass of the structure shown.

Series [1] in a line: In vitro dissolution of UPA comicronizates (gelatin capsules, paddle device, Eur. Pharmacopoeia §2.9.3). It counts as physicochemical. As to conditions: 30 mg UPA capsule, 900 ml gastric pH buffer, 0.1% SDS, 37°C, 50 rpm, mean of 3. Here is the method:
The co-micronization product has improved active ingredient in vitro dissolution properties. In certain embodiments, the co-micronization product according to the invention is characterized in that at least 55% of the active ingredient that it contains is released within 45 minutes when said co-micronization product is subjected to an in vitro dissolution test, preferably according to the European Pharmacopoeia §2.9.3. The in vitro dissolution test can be carried out using any commercially available device. Example 1 hereinafter presents implementing conditions for determining the in vitro dissolution rate of a comicronizate according to the invention. Briefly, an amount of comicronizate representing 30 mg of active ingredient is placed in a gelatin capsule. This capsule is then placed in 900 ml of a medium buffered at gastric pH, comprising 0.1% of SDS, at 37±0.5° C., and subjected to stirring at 50 revolutions per minute (rpm) (speed of rotation of the paddles of the dissolution device). The dissolution of the active ingredient in the medium can be monitored by spectrophotometry, for example at the maximum wavelength of absorbance. For the purposes of the invention, a gastric pH is typically a pH of 1 to 3.
For each comicronizate obtained, gelatin capsules containing an amount of comicronizate corresponding to 30 mg of UPA per capsule were prepared. The studies of the in vitro dissolution of UPA as comicronizate were carried out using these capsules according to the method described in the European Pharmacopoeia in §2.9.3, using a paddle dissolution device.
For each comicronizate, a capsule containing said comicronizate was placed in a bowl of the dissolution device containing 900 ml of a dissolution medium. The dissolution medium is an aqueous solution buffered at gastric pH and comprising 0.1% of SDS. The conditions for carrying out the in vitro dissolutions are the following: • Paddle rotation speed: 50 revolutions per minute (rpm) • Temperature: 37° C.±0.5° C.
The dissolution of the UPA was monitored by spectrophotometry.
By way of control experiment, a gelatin capsule containing 30 mg of ulipristal acetate micronized alone (i.e. UPA micronized in the absence of any co-micronization excipient) was used. For each comicronizate, the dissolution experiment was reproduced 3 times.
These various active ingredient matrices were subjected to an in vitro dissolution test as described above in the “Materials and Methods” section.

Series [2] can be described thus: UPA solubility as a function of pH. It counts as physicochemical.
The conditions of series [3]: single dose of 30 mg, within 120 hours following unprotected or poorly protected intercourse; cited from earlier work.
The conditions of series [4]: chronic administration, 5 mg or 10 mg per day; cited from earlier work.

`CC(=O)O[C@]1(C(C)=O)CCC2C3CCC4=CC(=O)CCC4=C3[C@@H](c3ccc(N(C)C)cc3)C[C@@]21C` (stereo partly drawn) [UPA, 17α-acetoxy-11β-(4-N,N-dimethylaminophenyl)-19-norpregna-4,9-diene-3,20-dione]: the “Percentage of UPA released relative to the initial amount of UPA per gel capsule” value is reported as 0.00% in series [1] (time 0 min); 0.00% in series [1] (time 1 min); 5.50% in series [1] (time 5 min); 15.00% in series [1] (time 7.5 min); 22.30% in series [1] (time 10 min); 30.00% in series [1] (time 15 min). Further, the “Percentage of UPA released relative to the initial amount of UPA per gel capsule” value in series [1] (time 20 min) is 34.30%; in series [1] (time 30 min, listed as Micronized UPA), 39.50%; in series [1] (time 30 min, listed as micronized ulipristal acetate) it was “approximately 39%”; in series [1] (time 45 min) it was 47.50%; in series [1] (time 60 min), 53.80%. The solubility was 22700 µg/mL (≈ 47700 µM) in series [2] (pH 1.2, simulated gastric fluid); 39 µg/mL (≈ 82 µM) in series [2] (pH 4.5, aqueous buffer); 5 µg/mL (≈ 10.5 µM) in series [2] (pH 6.8, aqueous buffer). For the same compound, the “Prevention of unwanted pregnancy” value in series [3] is “makes it possible to prevent an unwanted pregnancy”. For the same compound, the “Symptoms associated with uterine fibromas” value in series [4] is reported as “significantly reduce the symptoms associated with uterine fibromas”.

For orientation: solubility means the dissolved amount per volume that the medium holds.
